{"source": "ChEMBL document CHEMBL1221206", "about": "“Targeting virulence: a new paradigm for antimicrobial therapy” (Nat Chem Biol, 2007)", "tested_on": "5637", "test": "Inhibition of type-1 pilus-mediated Escherichia coli HB101 adhesion to human 5637 cells after 1 hr", "format": "cell-based", "conditions": "dose or concentration not given here", "data": [{"smiles": "CN(C)Cc1c(Cc2cccc3ccccc23)c(-c2ccccc2)c2n(c1=O)[C@H](C(=O)O)CS2", "values": [{"measurement": "inhibition", "result": 90, "unit": "%"}]}]}
